Test [1] concerns non-replicating cultures of M. tuberculosis H37Rv transformed with lux ABCDE. Kind of test: microbe, parasite or virus in culture. The class given is cell-based, Mycobacterium tuberculosis. The settings on record: for MIC90 LORA/MABA: ratio of LORA MIC90 to MABA MIC90. (Alamar Blue is a resazurin reagent that responds to reducing activity.)
Test [2] has as its system M. tuberculosis transformed with luxABCDE. The experiment in a line: microbe, parasite or virus in culture. The class given is cell-based, Mycobacterium tuberculosis. The note with it: for MBC: ≥99% reduction in luminescence, read-out: MBC99 Day 7 (Lux Assay) MBC.
A further test addresses β-S450L (RIF^R) MTB RNAP (Mycobacterium tuberculosis, UniProt P9WGY9, S456L). The settings on record: read-out: RNAP IC50 MTB S450L.
[3] abbreviates: […], ≥90% reduction in luminescence, read-out: MIC90 LORA.
Setting [4] is: Mycobacterium tuberculosis, H37RV, […], ≥90% reduction in luminescence, read-out: MIC90 LORA.
Setting [5] is: Mycobacterium tuberculosis, 168 h.

pIC50: −log10 of the molar value. In brackets after ≈: the same amount, converted by molar mass. Read-outs that look alike come from different tables or passages of the source.

Broadly, the pIC50 is the negative decadic logarithm of the IC50, by convention in mol/L. In the case of `CO[C@H]1/C=C/O[C@@]2(C)Oc3c(C)c(O)c4c(=O)c(c5oc6cc(N7CCC(CC(=O)O)CC7)cc(OCc7ccc(CN8CCOCC8)cc7)c6nc-5c4c3C2=O)NC(=O)/C(C)=C\C=C\[C@H](C)[C@H](O)[C@@H](C)[C@@H](O)[C@@H](C)[C@H](OC(C)=O)[C@@H]1C` [Compound 17l, 2-{1-[(7S,9E,11S,12R,13S,14R,15R,16R,17S,18S,19E,21Z)-13-(acetyloxy)-2,15,17-trihydroxy-11-methoxy-3,7,12,14,16,18,22-heptamethyl-32-{[4-(morpholin-4-ylmethyl)phenyl]methoxy}-6,23,37-trioxo-8,27,38-trioxa-24,34-diazahexacyclo-[23.11.1.1^4,7.0^5,36.0^26,35.0^28,33]octatriaconta-1,3,5(36)9,19,21,25,28,30,32,34-undecaen-30-yl]piperidin-4-yl)acetic acid], in test [1], the “MIC90 LORA Rel to RMP” value stood at 31 and the “MIC90 LORA/MABA” value was 4.5. In test [1] (setting [3]), the MIC90 is 0.843 µM (≈ 954 ng/mL). Also, the MBC in test [2] is above 0.1 µM. In addition, the pIC50 on β-S450L (RIF^R) MTB RNAP is 4.66.

In the case of `CO[C@H]1/C=C/O[C@@]2(C)Oc3c(C)c(O)c4c(=O)c(c5oc6cc(N7CCN(C(=O)c8cccc(-c9ccccn9)c8)CC7)cc(OCc7ccc(CN8CCOCC8)cc7)c6nc-5c4c3C2=O)NC(=O)/C(C)=C\C=C\[C@H](C)[C@H](O)[C@@H](C)[C@@H](O)[C@@H](C)[C@H](OC(C)=O)[C@@H]1C` [Compound 17r, (7S,9E,11S,12R,13S,14R,15R,16R,17S,18S,19E,21Z)-2,15,17-trihydroxy-11-methoxy-3,7,12,14,16,18,22-heptamethyl-32-{[4-(morpholin-4-ylmethyl)phenyl]methoxy}-6,23,37-trioxo-30-(4-{[3-(pyridin-2-yl)phenyl]carbonyl}piperazin-1-yl)-8,27,38-trioxa-24,34-diazahexacyclo[23.11.1.1^4,7.0^5,36.0^26,35.0^28,33]octatriaconta-1,3,5(36)9,19,21,25,28,30,32,34-undecaen-13-yl acetate], in test [1], the “MIC90 LORA Rel to RMP” value came out at 2.60 and the “MIC90 LORA/MABA” value was 5.7. Also, the MIC90 in test [1] (setting [3]) worked out at 0.13 µM. In test [2], the “MBC99 Day 7 (Lux Assay) MBC Rel to RMP” value was determined as 0.46 and the MBC came to 0.205 µM. Further, the negative-log IC50 (pIC50) on β-S450L (RIF^R) MTB RNAP is 4.11.

Take `CO[C@H]1/C=C/O[C@@]2(C)Oc3c(C)c(O)c4c(=O)c(c5oc6cc(N7CCC(CC(=O)O)CC7)cc(N7CCC(CC(=O)O)CC7)c6nc-5c4c3C2=O)NC(=O)/C(C)=C\C=C\[C@H](C)[C@H](O)[C@@H](C)[C@@H](O)[C@@H](C)[C@H](OC(C)=O)[C@@H]1C` [Compound 17v, 2-{1-[(7S,9E,11S,12R,13S,14R,15R,16R,17S,18S,19E,21Z)-13-(acetyloxy)-32-[4-(carboxymethyl)piperidin-1-yl]-2,15,17-trihydroxy-11-methoxy-3,7,12,14,16,18,22-heptamethyl-6,23,37-trioxo-8,27,38-trioxa-24,34-diazahexacyclo-[23.11.1.1^4,7.0^5,36.0^26,35.0^28,33]octatriaconta-1,3,5(36)9,19,21,25,28,30,32,34-undecaen-30-yl]piperidin-4-yl)acetic acid]: the MBC in test [2] was above 0.1 µM. Besides, the pIC50 on β-S450L (RIF^R) MTB RNAP is 4.18.

`CO[C@H]1/C=C/O[C@@]2(C)Oc3c(C)c(O)c4c(c3C2=O)C2=NC3(CCN(CC(C)C)CC3)NC2=C(NC(=O)/C(C)=C\C=C\[C@H](C)[C@H](O)[C@@H](C)[C@@H](O)[C@@H](C)[C@H](OC(C)=O)[C@@H]1C)C4=O` [RFB, rifabutin, reference compound]: in test [1], the “MIC90 LORA Rel to RMP” value was determined as 0.01 and the “MIC90 LORA/MABA” value is 0.94. Also, the MIC90 in test [1] (setting [4]) was 0.0023 µM (≈ 1.95 ng/mL). Besides, the “MBC99 Day 7 (Lux Assay) MBC Rel to RMP” value in test [2] was determined as 0.02. Moreover, in test [2] (setting [5]), the MBC was 0.01 µM (≈ 8.47 ng/mL).

Turning to `CO[C@H]1/C=C/O[C@@]2(C)Oc3c(C)c(O)c4c(=O)c(c5oc6cccc(OCc7cccc(CN8CCN(C(=O)Cc9ccccc9)CC8)c7)c6nc-5c4c3C2=O)NC(=O)/C(C)=C\C=C\[C@H](C)[C@H](O)[C@@H](C)[C@@H](O)[C@@H](C)[C@H](OC(C)=O)[C@@H]1C` [Compound 11g, (7S,9E,11S,12R,13S,14R,15R,16R,17S,18S,19E,21Z)-2,15,17-Trihydroxy-11-methoxy-3,7,12,14,16,18,22-heptamethyl-6,23,37-trioxo-32-[(3-{[4-(2-phenylacetyl)-piperazin-1-yl]methyl}phenyl)methoxy]-8,27,38-trioxa-24,34-diazahexacyclo[23.11.1.1^4,7.0^5,36.0^26,35.0^28,33]octatriaconta-1(36)2,4,9,19,21,25,28,30,32,34-undecaen-13-yl acetate], in test [1], the “MIC90 LORA Rel to RMP” value is listed as 1.1 and the “MIC90 LORA/MABA” value is recorded as 12. Also, in test [1] (setting [4]), the MIC90 amounted to 0.131 µM. The “MBC99 Day 7 (Lux Assay) MBC Rel to RMP” value in test [2] is given as 0.06. Also, the MBC in test [2] (setting [5]) worked out at 0.044 µM.

As for `CO[C@H]1/C=C/O[C@@]2(C)Oc3c(C)c(O)c4c(=O)c(c5oc6cccc(OCCCCN7CCN(C(=O)CN8CCOCC8)CC7)c6nc-5c4c3C2=O)NC(=O)/C(C)=C\C=C\[C@H](C)[C@H](O)[C@@H](C)[C@@H](O)[C@@H](C)[C@H](OC(C)=O)[C@@H]1C` [Compound 5e, (7S,9E,11S,12R,13S,14R,15R,16R,17S,18S,19E,21Z)-2,15,17-Trihydroxy-11-methoxy-3,7,12,14,16,18,22-heptamethyl-32-(4-{4-[2-(morpholin-4-yl)acetyl]piperazin-1-yl}butoxy)-6,23,37-trioxo-8,27,38-trioxa-24,34-diazahexacyclo[23.11.1.1^4,7.0^5,36.0^26,35.0^28,33]octatriaconta-1(36)2,4,9,19,21,25,28(33)29,31,34-undecaen-13-yl acetate], in test [1], the “MIC90 LORA Rel to RMP” value was found to be 0.27 and the “MIC90 LORA/MABA” value was found to be 0.57. For the same compound, in test [1] (setting [4]), the MIC is 0.047 µM. Also, the “MBC99 Day 7 (Lux Assay) MBC Rel to RMP” value in test [2] was determined as 0.09. Further, the MBC in test [2] (setting [5]) was determined as 0.04 µM.

As to `CCOC(=O)N1CCN(c2cc(C)c3nc4c5c6c7c(C)c(O)c5c(=O)c(c-4oc3c2)NC(=O)/C(C)=C\C=C\[C@H](C)[C@H](O)[C@@H](C)[C@@H](O)[C@@H](C)[C@H](OC(C)=O)[C@H](C)[C@@H](OC)/C=C/O[C@@](C)(O7)C6=O)CC1` [Compound 26h, Ethyl 4-[(7S,9E,11S,12R,13S,14R,15R,16R,17S,18S,19E,21Z)-13-(acetyloxy)-2,15,17-trihydroxy-11-methoxy-3,7,12,14,16,18,22,32-octamethyl-6,23,37-trioxo-8,27,38-trioxa-24,34-diazahexacyclo[23.11.1.1^4,7.0^5,36.0^26,35.0^28,33]octatriaconta-1(36)2,4,9,19,21,25,28,30,32,34-undecaen-30-yl]piperazine-1-carboxylate], in test [1], the “MIC90 LORA Rel to RMP” value turned out to be 0.05 and the “MIC90 LORA/MABA” value was determined as 1.9. The MIC90 in test [1] (setting [4]) came out at 0.0094 µM (≈ 8.98 ng/mL). Moreover, the “MBC99 Day 7 (Lux Assay) MBC Rel to RMP” value in test [2] amounted to 0.06. In test [2] (setting [5]), the MBC came to 0.028 µM (≈ 26.7 ng/mL).

In the case of `CO[C@H]1/C=C/O[C@@]2(C)Oc3c(C)c(O)c4c(=O)c(c5oc6cc(N7CCN(C(C)=O)CC7)cc(C)c6nc-5c4c3C2=O)NC(=O)/C(C)=C\C=C\[C@H](C)[C@H](O)[C@@H](C)[C@@H](O)[C@@H](C)[C@H](OC(C)=O)[C@@H]1C` [Compound 26d, (7S,9E,11S,12R,13S,14R,15R,16R,17S,18S,19E,21Z)-30-(4-Acetylpiperazin-1-yl)-2,15,17-trihydroxy-11-methoxy-3,7,12,14,16,18,22,32-octamethyl-6,23,37-trioxo-8,27,38-trioxa-24,34-diazahexacyclo[23.11.1.1^4,7.0^5,36.0^26,35.0^28,33]octatriaconta-1(36)2,4,9,19,21,25,28,30,32,34-undecaen-13-yl acetate], the MIC90 in test [1] (setting [4]) was above 0.02 µM. In test [2] (setting [5]), the MBC is above 0.1 µM.

Turning to `CCC(=O)N1CCN(Cc2cccc(COc3cccc4oc5c6c(=O)c7c(O)c(C)c8c(c7c-5nc34)C(=O)[C@@](C)(O/C=C/[C@H](OC)[C@@H](C)[C@@H](OC(C)=O)[C@H](C)[C@H](O)[C@H](C)[C@@H](O)[C@@H](C)/C=C/C=C(/C)C(=O)N6)O8)c2)CC1` [Compound 11d, (7S,9E,11S,12R,13S,14R,15R,16R,17S,1S,19E,21Z)-2,15,17-Trihydroxy-11-methoxy-3,7,12,14,16,18,22-heptamethyl-6,23,37-trioxo-32-{(3-[(4-propanoylpiperazin-1-yl)methyl]phenyl}methoxy)-8,27,38-trioxa-24,34-diazahexacyclo[23.11.1.1^4,7.0^5,36.0^26,35.0^28,33]octatriaconta-1(36)2,4,9,19,21,25,28,30,32,34-undecaen-13-yl acetate], in test [1] (setting [4]), the MIC90 is below 0.1 µM. For the same compound, the “MBC99 Day 7 (Lux Assay) MBC Rel to RMP” value in test [2] turned out to be 0.08. In test [2] (setting [5]), the MBC was determined as 0.058 µM.

The values are drawn from patent publication US20250188092A1, “RIFAMYCIN ANALOGS” (THE REGENTS OF THE UNIVERSITY OF MICHIGAN, priority 2021, published 2025).
